The nature of experiment [1]: Inhibition of alpha-mannosidase.
Experiment [2] can be described thus: Inhibition of jack bean alpha-mannosidase assessed as p-nitrophenol release using p-nitrophenyl-alpha-D-mannopyranoside as substrate after 15 to 60 mins by spectrophotometry. Also on record: species or system Canavalia ensiformis.
Experiment [3] is described as follows: Inhibition of alpha-galactosidase assessed as p-nitrophenol release using p-nitrophenyl-alpha-D-galactopyranoside as substrate preincubated for 1 hr before substrate addition measured after 10 mins by spectrophotometry.
Experiment [4] in a line: Inhibition of jack bean alpha-mannosidase assessed as p-nitrophenol release using p-nitrophenyl-alpha-D-mannopyranoside as substrate preincubated for 1 hr before substrate addition at pH 4.5 measured after 10 mins by spectrophotometry. Also on record: species or system Canavalia ensiformis.
Experiment [5] addresses T1, Pancreatic alpha-amylase (Sus scrofa) (UniProt P00690).
T1 sequence (whole entry): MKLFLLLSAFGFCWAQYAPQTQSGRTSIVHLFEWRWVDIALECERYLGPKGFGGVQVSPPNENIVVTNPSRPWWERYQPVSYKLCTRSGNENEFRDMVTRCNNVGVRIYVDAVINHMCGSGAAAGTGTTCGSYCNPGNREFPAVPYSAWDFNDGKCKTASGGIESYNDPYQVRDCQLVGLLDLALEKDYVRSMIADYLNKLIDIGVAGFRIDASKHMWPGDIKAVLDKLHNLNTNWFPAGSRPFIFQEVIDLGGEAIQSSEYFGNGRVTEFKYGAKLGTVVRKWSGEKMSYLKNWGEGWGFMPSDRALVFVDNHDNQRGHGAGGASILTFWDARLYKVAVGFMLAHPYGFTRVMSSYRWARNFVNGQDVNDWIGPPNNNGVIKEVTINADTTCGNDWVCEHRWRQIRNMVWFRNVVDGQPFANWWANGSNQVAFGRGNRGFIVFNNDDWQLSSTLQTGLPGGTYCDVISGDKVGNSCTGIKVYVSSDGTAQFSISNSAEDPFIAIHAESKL
Nature of the experiment: Inhibition of pig pancreatic alpha-amylase assessed as maltose release from starch at 5 mg/cm'3 after 10 mins by DNSA assay.

Experiment [6] in a line: Inhibition of alpha-glucosidase assessed as p-nitrophenol release using p-nitrophenyl-alpha-D-glucopyranoside as substrate preincubated for 1 hr before substrate addition at pH 6.8 measured after 10 mins by spectrophotometry.

The source made the active and inactive calls. The calls are words filed in the database; no cut-off is given here.

With `OC[C@@H]1CC2C(O)C(O)C1(O)CN2Cc1ccccc1` (stereo partly specified), half-maximal inhibition in experiment [1] (IC50) was put at 20000 µM.

In the case of `O[C@H]1[C@H]2[C@H](O)CCCN2C[C@H]1O` [TRIDOLGOSIR], the IC50 (as a rule, the concentration that gives 50% inhibition) in experiment [2] is 0.1 µM.

`OC[C@@H]1CC2NCC1(O)C(O)C2O` (stereo partly specified) displayed an IC50 in experiment [1] of 9600 µM.

Consider `OC[C@H]1O[C@@H]2OCC[C@@]1(O)[C@H]2O`, for which the inhibition result in experiment [3], in experiment [5] and in experiment [6] was “inactive” in each case. Besides, the IC50 in experiment [4] was 133 µM.

In the case of `NC[C@H]1O[C@@H]2OCC[C@@]1(O)[C@H]2O`, the inhibition entry in experiment [3], in experiment [5] and in experiment [6] was “inactive” each time. Further, the IC50 in experiment [4] is 98.3 µM.

The values above are taken from ChEMBL document CHEMBL1914357, “Synthesis of anomeric 1,5-anhydrosugars as conformationally locked selective α-mannosidase inhibitors” (Bioorg Med Chem, 2011).
